Source: patent US20260284074A1, “ENT1 Inhibitors in Combination with Checkpoint Inhibitors” (iTeos Belgium SA, priority 2023, published 2026)

What was measured:
[1] = tested on: human T cells; assay: [3H]adenosine uptake in activated human T cells; assay type: cell-based; settings: Homo sapiens, T-cell; T cells activated 2 days in presence of compound, washed, [3H]adenosine uptake; read-out: IC50, inhibition of uptake of adenosine into human T cells
Excerpt: Applicant observed that activated human T cells took up [3H]adenosine, and this uptake was reduced in the presence of the selective ENT1 inhibitor dilazep, confirming that ENT1 is the dominant transporter involved in adenosine uptake in T cells.
Human T cells were activated for 2 days in the presence of Compound 1 or dilazep. The cells were then washed and used in a [^3H]adenosine uptake experiment. […] (See FIG. 27A.)

[2] = tested on: ENT1; assay: ENT1 expression (FIG. 28C); assay type: cell-based, human
Protocol: FIGS. 28A, 28B, and 28C show the results of an experiment whereby human tumors were dissociated, and cells were CFSE-labelled and stimulated with CD3/CD28 microbeads and IL-2 in the presence of 500 μM of ATP as a source of adenosine. FIGS. 28A and 28B show data of Compound 1-mediated rescue of CD8+ T cell proliferation and TNF, IFNγ, and granzyme B, respectively, from dissociated tumor cell suspension cultures. Symbols represent each donor, bars are group mean±s.d. One-way RM ANOVA with Tukey's multiple comparisons test.

[3] = tested on: human T cells; assay: CMV pp65 peptide-specific T cell expansion and antigen-specific killing with ATP; assay type: cell-based; settings: 300 μM ATP as a source of adenosine
Protocol: FIGS. 29A and 29B show the results of an experiment whereby human T cells were activated in the presence of 300 μM ATP and Compound 1, anti-PD-1, or Compound 1 and anti-PD-1.
Human T cells were activated in the presence of 300 μM ATP and Compound 1, anti-PD-1, or Compound 1 and anti-PD-1. CD8+ T cell population was monitored by tetramer-positive (Tet+) staining data. […] (See FIGS. 29A-29B).

[4] = tested on: human T cells; assay: T cell proliferation by CFSE dilution in the presence of ATP; assay type: cell-based; settings: Homo sapiens, read-out: IC50, restoration of T cell proliferation
Protocol: Human T cells were activated in the presence of 100 μM ATP and dilazep or Compound 1 and proliferation was monitored by CarboxyFluoroscein Succinimidyl Ester (CFSE) dilution. […] (See FIG. 27B.)

[5] = target: T1, ENT1 (Homo sapiens, UniProt Q99808); assay: ENT1 transport inhibition assay (uridine transport); assay type: cell-based
T1 sequence (Q99808 1-456): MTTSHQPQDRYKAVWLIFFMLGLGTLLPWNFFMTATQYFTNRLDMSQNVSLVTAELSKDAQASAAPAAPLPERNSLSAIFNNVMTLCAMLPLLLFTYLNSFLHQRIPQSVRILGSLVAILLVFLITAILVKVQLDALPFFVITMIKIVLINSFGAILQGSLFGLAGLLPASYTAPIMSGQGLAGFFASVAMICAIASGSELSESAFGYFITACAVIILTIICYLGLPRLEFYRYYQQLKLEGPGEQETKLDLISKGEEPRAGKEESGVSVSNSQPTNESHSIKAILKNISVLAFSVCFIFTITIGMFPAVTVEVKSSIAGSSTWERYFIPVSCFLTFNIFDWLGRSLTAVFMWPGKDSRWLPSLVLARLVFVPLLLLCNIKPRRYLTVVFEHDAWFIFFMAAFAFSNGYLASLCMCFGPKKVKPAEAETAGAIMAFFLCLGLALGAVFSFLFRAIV

## COc1cc(C(=O)O[C@@H]2CCCOc3cc(cc(OC)c3OC)C(=O)NCCCN3CCCN(CC2)CC3)cc(OC)c1OC [Compound 1, (12R)-7^4,7^5-dimethoxy-6-oxo-8-oxa-5-aza-1(1,4)-diazepana-7(1,3)-benzenacyclotetradecaphane-12-yl 3,4,5-trimethoxybenzoate]
[1]
  IC50: 0.2 nM
[2]
  ENT1 expression: suppresses
[3]
  Antigen-specific killing activity: restoration
[3]; tetramer-positive CD8+ T cells
  CMV pp65 peptide-specific T cell expansion: restores
[4]
  IC50: 0.06 nM
[5]
  Potency of inhibition of ENT1-mediated uridine transport (in words): nanomolar potency
[5]; read-out: IC50, ENT1 inhibition (ENT1-mediated uridine transport)
  IC50: 2.2 nM
